This note sets out measurements from patent publication US8101761B2, “(E)-N-{3-[1-(8-fluoro-11H-10-OXA-1-AZA-dibenzo [A,D] cyclohepten-5ylidene)-propyl]-phenyl}-methanesulfonamide as glucocorticoid receptor modulator for the treatment of rheumatoid arthritis” (Eli Lilly and Company, priority 2008, dated 2012).

The assay concerns the target T1, human glucocorticoid receptor (GR) (Homo sapiens, UniProt P04150).
T1 construct: expressed in transfected cells; host or cells: HEK293, transient transfection, CMV promoter plasmid
T1 sequence (P04150 1-777): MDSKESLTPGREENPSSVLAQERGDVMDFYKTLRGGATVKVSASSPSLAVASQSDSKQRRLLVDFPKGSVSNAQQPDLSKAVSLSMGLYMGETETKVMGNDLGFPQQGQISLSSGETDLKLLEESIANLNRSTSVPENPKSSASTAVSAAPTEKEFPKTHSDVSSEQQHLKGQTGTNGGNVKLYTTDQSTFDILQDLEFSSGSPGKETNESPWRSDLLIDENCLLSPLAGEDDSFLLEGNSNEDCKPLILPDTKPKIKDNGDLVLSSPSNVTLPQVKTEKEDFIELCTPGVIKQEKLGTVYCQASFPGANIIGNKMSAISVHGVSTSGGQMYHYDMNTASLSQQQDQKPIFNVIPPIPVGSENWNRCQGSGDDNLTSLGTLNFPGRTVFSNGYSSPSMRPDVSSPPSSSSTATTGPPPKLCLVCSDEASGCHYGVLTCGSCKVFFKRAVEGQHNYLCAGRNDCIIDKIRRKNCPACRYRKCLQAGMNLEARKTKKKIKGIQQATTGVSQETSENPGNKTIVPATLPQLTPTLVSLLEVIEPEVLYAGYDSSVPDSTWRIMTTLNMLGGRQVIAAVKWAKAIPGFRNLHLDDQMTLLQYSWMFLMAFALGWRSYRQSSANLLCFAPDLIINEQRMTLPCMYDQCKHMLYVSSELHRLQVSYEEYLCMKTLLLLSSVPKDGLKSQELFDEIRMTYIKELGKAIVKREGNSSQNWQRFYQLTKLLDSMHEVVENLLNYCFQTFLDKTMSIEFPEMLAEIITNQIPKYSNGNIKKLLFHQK
The assay is described as follows: Nuclear hormone receptor functional modulation assay (GRE-luciferase reporter, HEK293), GR. The assay is classed as cell-based. The conditions noted are these: agonist mode, mean of n=4 or 5. The text has this:
The solvents, reagents, and ligands employed in the functional assay are readily available from commercial sources, or can be prepared by one of ordinary skill in the art.
Human embryonic kidney HEK293 cells are transfected with steroid hormone receptor and reporter gene plasmids using Fugene™ transfection reagent. Briefly, the reporter plasmid containing two copies of probasin ARE and TK(thymidine kinase) promoter upstream of the luciferase reporter cDNA, is transfected into HEK293 cells with a plasmid constitutively expressing human androgen receptor (AR) using viral CMV(cytomegalovirus) promoter. The reporter plasmid containing two copies of GRE and TK promoter upstream of the luciferase reporter cDNA is transfected with a plasmid constitutively expressing either human glucocorticoid receptor (GR), human mineralocorticoid receptor (MR), or human progesterone receptor (PR) using viral CMV promoter. […] After 24-hours incubation with test compounds, cells are lysed and luciferase activity is determined using standard techniques.
Data are fitted to a four parameter-fit logistic curve fit to determine EC50 values. […] IC50 values may be determined similarly using antagonist mode assay data. Percent inhibitions may also be determined relative to the response in the presence of agonist alone, as described above.
In general terms: A reporter such as luciferase makes a cellular process visible.

pEC50: −log10 of the molar value.

For the compound `CC/C(=C1\c2ccc(F)cc2OCc2ncccc21)c1cccc(NS(C)(=O)=O)c1` [Compound (I), (E)-N-{3-[1-(8-Fluoro-11H-10-oxa-1-aza-dibenzo[a,d]cyclohepten-5-ylidene)-propyl]-phenyl}-methanesulfonamide], the “efficacy in activating transcription, GR” value (relative to 100 nM dexamethasone) is “about 44%”. The pEC50 (usually the negative decadic logarithm of the EC50, by convention in mol/L) (read-out: EC50 in activating transcription, GR) was around 8.74.
